Reference: ChEMBL document CHEMBL1135549 (J Med Chem, 2002)

Key:
[1] = target: Cannabinoid receptor 1 (Rattus norvegicus, UniProt P20272); assay: Displacement of [3H]CP-55940 from rat forebrain membrane which expresses Cannabinoid receptor 1 in the presence of PMSF
[2] = target: Cannabinoid receptor (Rattus norvegicus) (UniProt Q9QZN9+P20272); assay: Ratio of Ki at CB1 to Ki at CB2 receptors; format: protein assay
[3] = Inhibition of N-arachidonoylethanolamine transporter (AEA) activity in human lymphoma U937 cell using [3H]AEA as substrate in the 0-1000 nM conc.; format: cell-based; settings: u-937
[4] = target: T1, Cannabinoid receptor 2 (Rattus norvegicus, UniProt Q9QZN9); assay: Displacement of [3H]CP-55940 from rat forebrain membrane which expresses Cannabinoid receptor 2 in the presence of PMSF
T1 sequence (Q9QZN9 whole entry): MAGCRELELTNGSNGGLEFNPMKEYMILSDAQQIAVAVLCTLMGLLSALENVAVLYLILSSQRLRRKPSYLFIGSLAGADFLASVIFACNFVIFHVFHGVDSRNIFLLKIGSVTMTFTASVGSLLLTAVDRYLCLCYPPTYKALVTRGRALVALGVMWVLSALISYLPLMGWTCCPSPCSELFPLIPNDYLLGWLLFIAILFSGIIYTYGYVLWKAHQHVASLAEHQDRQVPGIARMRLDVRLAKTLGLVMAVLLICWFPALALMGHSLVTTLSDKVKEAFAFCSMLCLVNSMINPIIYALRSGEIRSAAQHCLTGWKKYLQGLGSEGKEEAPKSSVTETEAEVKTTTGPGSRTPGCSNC

[5] = target: T2, Fatty-acid amide hydrolase 1 (Homo sapiens, UniProt O00519); assay: Inhibition of Fatty-acid amide hydrolase (FAAH) activity in human lymphoma U937 cell using [3H]AEA as substrate in the 0-25 uM conc; format: cell-based, U-937
T2 sequence (O00519 whole entry): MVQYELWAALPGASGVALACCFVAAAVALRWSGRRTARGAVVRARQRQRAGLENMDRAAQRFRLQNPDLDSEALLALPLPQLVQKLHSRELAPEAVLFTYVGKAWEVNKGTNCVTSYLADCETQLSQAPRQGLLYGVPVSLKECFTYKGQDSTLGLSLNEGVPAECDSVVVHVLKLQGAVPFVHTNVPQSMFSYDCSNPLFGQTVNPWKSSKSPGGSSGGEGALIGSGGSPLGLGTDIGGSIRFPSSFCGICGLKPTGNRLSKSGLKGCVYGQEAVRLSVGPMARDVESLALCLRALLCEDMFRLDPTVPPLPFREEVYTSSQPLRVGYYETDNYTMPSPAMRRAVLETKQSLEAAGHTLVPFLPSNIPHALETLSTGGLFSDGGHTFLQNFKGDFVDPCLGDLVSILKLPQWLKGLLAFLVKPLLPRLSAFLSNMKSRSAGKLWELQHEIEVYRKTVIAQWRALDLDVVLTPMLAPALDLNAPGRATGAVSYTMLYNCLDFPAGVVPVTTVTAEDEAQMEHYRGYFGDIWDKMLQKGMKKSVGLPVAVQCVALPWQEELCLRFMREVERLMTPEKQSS

Chain of Cannabinoid receptor (Rattus norvegicus) (P20272 whole entry, looked up, one chain of several): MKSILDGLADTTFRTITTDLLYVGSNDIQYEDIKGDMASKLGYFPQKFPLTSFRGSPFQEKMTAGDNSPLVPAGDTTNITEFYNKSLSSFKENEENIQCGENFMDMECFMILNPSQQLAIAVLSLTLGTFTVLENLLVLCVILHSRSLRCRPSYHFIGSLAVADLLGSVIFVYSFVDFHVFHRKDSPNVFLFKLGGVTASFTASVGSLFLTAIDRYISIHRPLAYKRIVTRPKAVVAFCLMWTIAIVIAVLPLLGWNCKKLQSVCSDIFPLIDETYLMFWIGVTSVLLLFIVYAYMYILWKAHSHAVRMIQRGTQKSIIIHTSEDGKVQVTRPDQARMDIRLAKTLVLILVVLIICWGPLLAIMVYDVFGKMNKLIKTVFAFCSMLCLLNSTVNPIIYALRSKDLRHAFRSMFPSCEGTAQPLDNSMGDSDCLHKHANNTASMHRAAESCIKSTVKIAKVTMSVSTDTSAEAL
Chain of Cannabinoid receptor 1 (P20272 whole entry): as the sequence (P20272 whole entry, looked up, one chain of several) above

SMILES	Ki [1] [nM]	Ratio [2]	Ki [3] [nM]	Ki [4] [nM]	Ki [5] [nM]
CCCCCC(O)/C=C/C=C\C/C=C\C/C=C\CCCC(=O)NCCO (mixture of isomers)	680	> 0.7	> 10000	> 1000	630
CCCCC[C@H](O)/C=C/C=C\C/C=C\C/C=C\CCCC(=O)OC[C@H](O)CO	> 1000		7000	> 1000	5000
CCCCC/C=C\C/C=C\C/C=C\C/C=C\CCCC(=O)OC[C@@H](O)CO	> 1000		> 10000	> 1000	3000
CCCCC/C=C\C=C\C(O)C/C=C\C/C=C\CCCC(=O)NCCO (mixture of isomers)	> 1000		> 10000	> 1000	690
CCCCC[C@H](O)/C=C/C=C\C=C\[C@@H](O)C/C=C\CCCC(=O)NCCO	> 1000		> 10000	> 1000	690
CCCCC/C=C\C=C\[C@@H](O)C/C=C\C/C=C\CCCC(=O)NCCO	> 1000		> 10000	> 1000	570
CCCCC/C=C\C/C=C\C/C=C\C/C=C\CCCC(=O)OC(CO)CO [2-ARACHIDONOYLGLYCEROL]			3000	100	5000
CCCCC[C@@H](O)/C=C/C=C\C/C=C\C/C=C\CCCC(=O)NCCO	600	< 0.6	> 10000	> 1000	630
CCCCC[C@H](O)/C=C/C=C\CCCCCCCC(=O)NCCO	> 1000	> 1.7	> 10000	600	430
CCCCC/C=C\C/C=C\C/C=C\C/C=C\CCCC(=O)NCCO [ANANDAMIDE]			> 10000		> 10000
CCCCC[C@@H](O)/C=C/C=C\C/C=C\C=C\[C@H](O)CCCC(=O)NCCO	> 1000		> 10000	> 1000	1260
CCCCC/C=C\C[C@@H](O)/C=C/C=C\C/C=C\CCCC(=O)NCCO	150	0.3	> 10000	500	2900
CCCCC/C=C\C/C=C\C/C=C\C/C=C\CCCC(=O)OC[C@H](O)CO	> 1000		10000	> 1000	2500
CCCCC[C@H](O)/C=C/C=C\C/C=C\C/C=C\CCCC(=O)OC[C@@H](O)CO	> 1000		9000	550	6000
